Like-named read-outs stand apart in the source and are kept apart here.
Columns and labels:
[1] = target: ATM kinase (Homo sapiens, UniProt Q13315); assay: Inhibitory activity against ATM kinase (p53 substrate, HTRF); format: biochemical
Method: (§1) ATM kinase solution (concentration: 25 ng/μL) was added to assay wells at 6 μL/well, and different compounds dissolved in DMSO were added to the assay wells separately using a nanoliter pipettor, such that the final concentrations of the compounds were 10000 nM to 2.44 nM. In this experiment, the wells were set in duplicate, and a control well was set. After incubation of the above system for 30 min at room temperature, ATP (100 μM) was mixed with p53 substrate (50 nM) at a ratio of 1:1, and the mixture was added at 4 μL/well. The resulting mixture was left to react at room temperature for 2 h, and then 5 μL of EDTA was added to terminate the reaction, followed by addition of 5 μL of detection antibodies, Mab Anti-phospho p53 and Mab Anti GST-d2 (manufacturer: perkinelmer). The mixture was incubated at room temperature for 1 h. The plate was read using a PerkinElmer Envision multifunctional microplate reader (excitation: 320 nm, emission: 620 nm/665 nm), and IC50 was calculated by four-parameter fitting.

[2] = target: ATR/ATPIP (ATR-interacting protein) kinase (Homo sapiens, UniProt Q13535); assay: Inhibitory activity against ATR kinase (p53 substrate, HTRF); format: biochemical
Chain of ATR/ATPIP (ATR-interacting protein) kinase (Q13535 whole entry): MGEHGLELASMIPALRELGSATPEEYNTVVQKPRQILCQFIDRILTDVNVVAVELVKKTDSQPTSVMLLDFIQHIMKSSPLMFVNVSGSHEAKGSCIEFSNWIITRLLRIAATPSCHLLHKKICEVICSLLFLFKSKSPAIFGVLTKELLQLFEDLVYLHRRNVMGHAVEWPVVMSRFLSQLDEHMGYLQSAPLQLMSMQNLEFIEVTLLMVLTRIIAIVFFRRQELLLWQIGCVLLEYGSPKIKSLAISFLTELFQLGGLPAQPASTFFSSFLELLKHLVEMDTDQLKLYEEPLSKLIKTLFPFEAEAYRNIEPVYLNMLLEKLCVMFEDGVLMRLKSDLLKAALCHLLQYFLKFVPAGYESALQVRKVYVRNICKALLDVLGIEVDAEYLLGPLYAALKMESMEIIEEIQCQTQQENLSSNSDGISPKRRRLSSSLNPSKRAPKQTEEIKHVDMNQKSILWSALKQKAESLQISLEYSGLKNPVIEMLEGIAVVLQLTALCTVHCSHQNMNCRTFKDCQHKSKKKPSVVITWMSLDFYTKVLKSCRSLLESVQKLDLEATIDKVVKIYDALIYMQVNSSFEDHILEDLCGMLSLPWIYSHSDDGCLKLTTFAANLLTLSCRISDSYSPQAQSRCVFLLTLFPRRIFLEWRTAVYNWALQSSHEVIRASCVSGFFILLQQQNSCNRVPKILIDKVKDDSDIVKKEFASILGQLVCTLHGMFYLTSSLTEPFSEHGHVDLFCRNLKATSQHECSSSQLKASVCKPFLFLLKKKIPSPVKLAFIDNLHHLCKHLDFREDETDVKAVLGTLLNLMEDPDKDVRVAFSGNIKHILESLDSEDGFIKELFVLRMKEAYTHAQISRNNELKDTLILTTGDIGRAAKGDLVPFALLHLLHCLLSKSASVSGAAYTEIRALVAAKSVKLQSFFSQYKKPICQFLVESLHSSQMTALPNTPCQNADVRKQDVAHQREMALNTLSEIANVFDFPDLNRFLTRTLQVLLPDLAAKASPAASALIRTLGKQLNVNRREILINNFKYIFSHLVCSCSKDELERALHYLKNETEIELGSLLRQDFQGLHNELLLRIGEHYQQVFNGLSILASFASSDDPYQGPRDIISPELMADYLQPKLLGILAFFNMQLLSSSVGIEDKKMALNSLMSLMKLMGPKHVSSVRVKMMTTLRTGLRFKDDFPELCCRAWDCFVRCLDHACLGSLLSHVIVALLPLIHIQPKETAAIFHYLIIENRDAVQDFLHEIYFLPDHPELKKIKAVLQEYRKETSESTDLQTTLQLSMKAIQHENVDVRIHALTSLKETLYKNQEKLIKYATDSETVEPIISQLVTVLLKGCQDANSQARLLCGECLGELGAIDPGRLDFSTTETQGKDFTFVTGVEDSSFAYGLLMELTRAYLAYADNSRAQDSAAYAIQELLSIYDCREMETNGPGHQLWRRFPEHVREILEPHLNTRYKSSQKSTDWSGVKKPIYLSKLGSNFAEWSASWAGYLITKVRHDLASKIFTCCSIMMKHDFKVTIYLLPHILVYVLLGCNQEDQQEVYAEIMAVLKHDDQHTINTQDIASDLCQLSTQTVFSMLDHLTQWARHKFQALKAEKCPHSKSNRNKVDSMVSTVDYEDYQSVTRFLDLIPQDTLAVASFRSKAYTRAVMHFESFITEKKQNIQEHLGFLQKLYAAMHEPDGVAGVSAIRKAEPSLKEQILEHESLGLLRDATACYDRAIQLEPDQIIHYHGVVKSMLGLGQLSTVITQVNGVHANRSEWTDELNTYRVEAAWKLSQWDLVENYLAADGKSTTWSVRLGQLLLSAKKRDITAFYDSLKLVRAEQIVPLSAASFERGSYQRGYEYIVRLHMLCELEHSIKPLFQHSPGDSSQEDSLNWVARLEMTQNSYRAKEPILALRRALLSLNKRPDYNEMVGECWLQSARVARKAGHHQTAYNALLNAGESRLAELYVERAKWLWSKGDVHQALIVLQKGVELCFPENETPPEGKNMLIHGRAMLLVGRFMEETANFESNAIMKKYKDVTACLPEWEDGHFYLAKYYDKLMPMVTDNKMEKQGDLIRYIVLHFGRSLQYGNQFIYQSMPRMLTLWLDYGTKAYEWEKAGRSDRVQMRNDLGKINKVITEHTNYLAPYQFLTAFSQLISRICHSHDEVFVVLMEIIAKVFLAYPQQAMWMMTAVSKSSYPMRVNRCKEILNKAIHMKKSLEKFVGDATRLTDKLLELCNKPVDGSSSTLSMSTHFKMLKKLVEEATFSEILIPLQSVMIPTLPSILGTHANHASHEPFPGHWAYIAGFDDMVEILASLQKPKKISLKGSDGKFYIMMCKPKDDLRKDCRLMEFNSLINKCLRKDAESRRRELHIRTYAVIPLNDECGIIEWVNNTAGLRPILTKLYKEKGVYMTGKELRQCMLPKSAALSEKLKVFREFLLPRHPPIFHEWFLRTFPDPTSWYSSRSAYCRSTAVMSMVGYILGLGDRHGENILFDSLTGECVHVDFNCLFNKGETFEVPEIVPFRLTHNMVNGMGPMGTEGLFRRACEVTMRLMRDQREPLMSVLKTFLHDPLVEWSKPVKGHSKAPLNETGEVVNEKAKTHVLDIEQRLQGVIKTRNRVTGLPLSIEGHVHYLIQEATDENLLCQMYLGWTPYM
Chain of ATR/ATPIP (ATR-interacting protein) kinase (Q8WXE1 whole entry partner): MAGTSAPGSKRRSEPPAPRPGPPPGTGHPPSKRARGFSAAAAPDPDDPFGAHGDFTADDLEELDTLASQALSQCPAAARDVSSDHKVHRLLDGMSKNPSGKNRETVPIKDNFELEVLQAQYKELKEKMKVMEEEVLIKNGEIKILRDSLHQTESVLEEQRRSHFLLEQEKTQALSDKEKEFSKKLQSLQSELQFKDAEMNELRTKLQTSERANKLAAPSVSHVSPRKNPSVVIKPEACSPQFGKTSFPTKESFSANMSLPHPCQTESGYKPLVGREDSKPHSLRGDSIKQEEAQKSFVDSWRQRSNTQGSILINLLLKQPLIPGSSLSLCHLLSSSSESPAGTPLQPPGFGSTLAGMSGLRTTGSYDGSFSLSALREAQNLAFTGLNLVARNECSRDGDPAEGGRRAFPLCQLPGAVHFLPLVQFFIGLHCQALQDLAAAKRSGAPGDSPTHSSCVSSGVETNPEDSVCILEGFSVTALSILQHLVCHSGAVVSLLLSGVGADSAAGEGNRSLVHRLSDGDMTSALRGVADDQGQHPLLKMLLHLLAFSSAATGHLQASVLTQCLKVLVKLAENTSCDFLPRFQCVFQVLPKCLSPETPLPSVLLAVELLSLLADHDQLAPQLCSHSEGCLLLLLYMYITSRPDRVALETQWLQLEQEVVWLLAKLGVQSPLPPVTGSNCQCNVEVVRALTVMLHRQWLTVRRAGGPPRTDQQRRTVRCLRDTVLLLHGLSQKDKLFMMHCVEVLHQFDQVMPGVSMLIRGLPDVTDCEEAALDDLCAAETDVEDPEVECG
Method: as §1, with “ATR/ATPIP (ATR-interacting protein)” for “ATM”, “50” for “25”, “(5” for “(100”

[3] = target: DNA-PK (DNA-dependent protein kinase) (Homo sapiens, UniProt P78527); assay: Inhibitory activity against DNA-PK (p53 substrate, HTRF); format: biochemical
Method: as §1, with “DNA-PK” for “ATM”, “0.15” for “25”

[4] = system: CHK2 phosphorylation of NCI-H2228 cells; assay: Inhibitory activity against CHK2 phosphorylation of NCI-H2228 cells (p-CHK2 Thr68 AlphaLISA); format: cell-based; conditions: Homo sapiens
Method: NCI-H2228 cells in a good growth state were collected, added to a centrifuge tube, adjusted to a cell density of 1.25×10^6 cells/mL, and seeded in a 384-well plate (8 μL/well). The cells were equilibrated in a cell incubator for 1.5 h, and then compounds were added using a nanoliter pipettor, such that the final concentrations of the compounds were 200 nM to 0.049 nM. In this experiment, the wells were set in duplicate, and a control well was set. After the mixture was further cultured for 1 h in the cell incubator, an assay was performed using a p-CHK2 (Thr68) assay kit (manufacturer: perkinelmer) and the Envision microplate reader AlphaLISA program. A four-parameter analysis was performed, a dose-response curve was fit, and IC50 was calculated.

[5] = In vivo pharmacokinetics (Table 4); conditions: plasma; for MRT last: read-out: MRT(0-t); for Vd: read-out: Vz

| SMILES | IC50 [1] [nM] | IC50 [2] [nM] | IC50 [3] [nM] | IC50 [4] [nM] | AUC(0-inf) ([5]; iv, 1 mg/kg) [ng·h/mL] | AUC(0-t) ([5]; iv, 1 mg/kg) [ng·h/mL] | half-life ([5]; iv, 1 mg/kg) [h] | MRT last ([5]; iv, 1 mg/kg) [h] | Vd ([5]; iv, 1 mg/kg) [L/kg] | AUC(0-inf) ([5]; po, IG, 10 mg/kg) [ng·h/mL] | AUC(0-t) ([5]; po, IG, 10 mg/kg) [ng·h/mL] | Cmax ([5]; po, IG, 10 mg/kg) [ng/mL] | Tmax ([5]; po, IG, 10 mg/kg) [h] | half-life ([5]; po, IG, 10 mg/kg) [h] | MRT last ([5]; po, IG, 10 mg/kg) [h] |
| --- | --- | --- | --- | --- | --- | --- | --- | --- | --- | --- | --- | --- | --- | --- | --- |
| CC(C)n1c(=O)n(N)c2cnc3cc(F)c(-c4ccc(OCCCN5CCCCC5)nc4)cc3c21 [Example 2] | < 50 | 821 | > 1000 | < 50 | 539 | 521 | 1.7 | 2.11 | 4.55 | 4270 | 4150 | 521 | 0.5 | 4.59 | 6.1 |
| CC(C)n1c(=O)n(N)c2cnc3cc(F)c(-c4ccc(OCCCN5CCCC5)nc4)cc3c21 [Example 3] | < 50 | > 1000 | > 1000 | < 50 | 460 | 445 | 1.74 | 2.1 | 5.45 | 4330 | 4250 | 495 | 1 | 4.01 | 6.05 |
| Nn1c(=O)n(C2CC2)c2c3cc(-c4ccc(OCCCN5CCCCC5)nc4)c(F)cc3ncc21 [Example 18] | < 50 | > 1000 | > 1000 | < 50 | 624 | 587 | 2.17 | 1.89 | 3.9 | 4500 | 4460 | 506 | 4 | 3.51 | 4.99 |
| Nn1c(=O)n(C2CC2)c2c3cc(-c4ccc(OCCCN5CCCC5)nc4)c(F)cc3ncc21 [Example 19] | < 50 | > 1000 | > 1000 | < 50 | 474 | 451 | 2.05 | 1.84 | 4.82 | 4000 | 3980 | 485 | 4 | 3.07 | 4.72 |

— patent US20260250277A1, “HYDRAZINO GROUP-CONTAINING COMPOUND” (CHIA TAI TIANQING PHARMACEUTICAL GROUP CO., LTD., priority 2022, published 2026)
